Measurements published in the supplement of paper PMC10307832.

What was measured:
Experiment in all cases: relative viability (nuclei count vs DMSO), 5 days (fraction); higher = more cells survive
[1] = compound: C1CN(CCN1)C2=CC=C(C=C2)C3=CN4C(=C(C=N4)C5=CC=NC6=CC=CC=C56)N=C3 [DM3189]
Method in brief: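 Hoechst staining, done together with fixation and permeabilisation, marked nuclei for 4× imaging and MetaXpress counting. This followed 5 days without medium change after lung cancer cell lines, kept overnight at 37 °C in 1536-well plates, were pinned with five library-drug doses (not always all listed) spaced by √10 on vehicle-anchored plates. Viability is the ratio of treated-well to vehicle-well nuclei, expressed as a median across plates. Plates passed only at control CV below 25% with at least one doubling.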

[2] = compound: C1CN(CCN1)C2=CC=C(C=C2)C3=CN4C(=C(C=N4)C5=CC=NC6=CC=CC=C56)N=C3 [DM3189] + N=C(N)NC(=N)NCCc1ccccc1 [Phenformin] (partner 250 µM)
Method in brief: (§1)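 Medians of duplicate plates are given as relative viability. That measure is the nuclei count in treated wells divided by the count in vehicle wells. Counts were taken on 4× images of lung cancer cell lines in 1536-well plates, 5 days after pin-tool dosing the day after seeding with one drug alone or a fixed anchor-drug dose plus five library-drug doses (not always all listed) in √10 steps.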

[3] = compound: C1CN(CCN1)C2=CC=C(C=C2)C3=CN4C(=C(C=N4)C5=CC=NC6=CC=CC=C56)N=C3 [DM3189] + COc1cc2c(Oc3ccc(NC(=O)C4(C(=O)Nc5ccc(F)cc5)CC4)cc3F)ccnc2cc1OCCCN1CCOCC1 [Foretinib] (partner 0.25 µM)
Method in brief: as §1

[4] = compound: C1CN(CCN1)C2=CC=C(C=C2)C3=CN4C(=C(C=N4)C5=CC=NC6=CC=CC=C56)N=C3 [DM3189] + Cc1cc(Nc2cc(N3CCN(C)CC3)nc(Sc3ccc(NC(=O)C4CC4)cc3)n2)n[nH]1 [Tozasertib] (partner 0.1 µM)
Method in brief: as §1

[5] = compound: C1CN(CCN1)C2=CC=C(C=C2)C3=CN4C(=C(C=N4)C5=CC=NC6=CC=CC=C56)N=C3 [DM3189] + CCNC(=O)c1noc(-c2cc(C(C)C)c(O)cc2O)c1-c1ccc(CN2CCOCC2)cc1 [Luminespib] (partner 0.01 µM)
Method in brief: as §1

[6] = compound: C1CN(CCN1)C2=CC=C(C=C2)C3=CN4C(=C(C=N4)C5=CC=NC6=CC=CC=C56)N=C3 [DM3189] + COc1cccc2cc(-c3nc([C@H]4CC[C@H](C(=O)O)CC4)n4ncnc(N)c34)[nH]c12 [OSI-027] (partner 0.5 µM)
Method in brief: as §1

[7] = compound: C1CN(CCN1)C2=CC=C(C=C2)C3=CN4C(=C(C=N4)C5=CC=NC6=CC=CC=C56)N=C3 [DM3189] + Cc1nc(Nc2ncc(C(=O)Nc3c(C)cccc3Cl)s2)cc(N2CCN(CCO)CC2)n1 [Dasatinib] (partner 0.075 µM)
Method in brief: as §1

[8] = compound: C1CN(CCN1)C2=CC=C(C=C2)C3=CN4C(=C(C=N4)C5=CC=NC6=CC=CC=C56)N=C3 [DM3189] + O=C(c1cc(Cc2n[nH]c(=O)c3ccccc23)ccc1F)N1CCN(C(=O)C2CC2)CC1 [Olaparib] (partner 8 µM)
Method in brief: as §1

[9] = compound: C1CN(CCN1)C2=CC=C(C=C2)C3=CN4C(=C(C=N4)C5=CC=NC6=CC=CC=C56)N=C3 [DM3189] + Nc1nc2[nH]cc(CCc3ccc(C(=O)N[C@@H](CCC(=O)O)C(=O)O)cc3)c2c(=O)[nH]1 [Pemetrexed] (partner 0.2 µM)
Method in brief: as §1

[10] = compound: C1CN(CCN1)C2=CC=C(C=C2)C3=CN4C(=C(C=N4)C5=CC=NC6=CC=CC=C56)N=C3 [DM3189] + CC(=O)c1c(C)c2cnc(Nc3ccc(N4CCNCC4)cn3)nc2n(C2CCCC2)c1=O [Palbociclib] (partner 0.5 µM)
Method in brief: as §1

[11] = compound: C1CN(CCN1)C2=CC=C(C=C2)C3=CN4C(=C(C=N4)C5=CC=NC6=CC=CC=C56)N=C3 [DM3189] + CC(=O)Nc1cccc(-n2c(=O)n(C3CC3)c(=O)c3c(Nc4ccc(I)cc4F)n(C)c(=O)c(C)c32)c1 [Trametinib] (partner 0.02 µM)
Method in brief: as §1

[12] = compound: C1CN(CCN1)C2=CC=C(C=C2)C3=CN4C(=C(C=N4)C5=CC=NC6=CC=CC=C56)N=C3 [DM3189] + Nc1ncn([C@H]2C[C@H](O)[C@@H](CO)O2)c(=O)n1 [Decitabine] (partner 2 µM)
Method in brief: as §1

[13] = compound: C1CN(CCN1)C2=CC=C(C=C2)C3=CN4C(=C(C=N4)C5=CC=NC6=CC=CC=C56)N=C3 [DM3189] + NC(=O)Nc1cc(-c2cccc(F)c2)sc1C(=O)N[C@H]1CCCNC1 [AZD7762] (partner 0.2 µM)
Method in brief: as §1

[14] = compound: C1CN(CCN1)C2=CC=C(C=C2)C3=CN4C(=C(C=N4)C5=CC=NC6=CC=CC=C56)N=C3 [DM3189] + O=C(CCCCCCC(=O)Nc1ccccc1)NO [Vorinostat] (partner 1 µM)
Method in brief: as §1

NCI-H1623
relative viability ([1]; 0.08 µM): 1.05
relative viability ([1]; 0.253 µM): 0.874
relative viability ([1]; 0.8 µM): 0.92
relative viability ([1]; 2.53 µM): 0.979
relative viability ([2]; first compound 0.08 µM): 0.61
relative viability ([2]; first compound 0.253 µM): 0.528
relative viability ([2]; first compound 0.8 µM): 0.46
relative viability ([2]; first compound 2.53 µM): 0.545
relative viability ([3]; first compound 0.08 µM): 0.939
relative viability ([3]; first compound 0.253 µM): 0.901
relative viability ([3]; first compound 0.8 µM): 0.83
relative viability ([3]; first compound 2.53 µM): 0.818
relative viability ([4]; first compound 0.08 µM): 0.406
relative viability ([4]; first compound 0.253 µM): 0.426
relative viability ([4]; first compound 0.8 µM): 0.408
relative viability ([4]; first compound 2.53 µM): 0.377
relative viability ([5]; first compound 0.08 µM): 0.482
relative viability ([5]; first compound 0.253 µM): 0.494
relative viability ([5]; first compound 0.8 µM): 0.313
relative viability ([5]; first compound 2.53 µM): 0.537
relative viability ([6]; first compound 0.08 µM): 0.517
relative viability ([6]; first compound 0.253 µM): 0.43
relative viability ([6]; first compound 0.8 µM): 0.34
relative viability ([6]; first compound 2.53 µM): 0.369
relative viability ([7]; first compound 0.08 µM): 0.588
relative viability ([7]; first compound 0.253 µM): 0.611
relative viability ([7]; first compound 0.8 µM): 0.456
relative viability ([7]; first compound 2.53 µM): 0.527

NCI-H1648
relative viability ([1]; 0.08 µM): 0.798
relative viability ([1]; 0.253 µM): 0.947
relative viability ([1]; 0.8 µM): 0.962
relative viability ([1]; 2.53 µM): 0.661
relative viability ([8]; first compound 0.08 µM): 1.16
relative viability ([8]; first compound 0.253 µM): 0.881
relative viability ([8]; first compound 0.8 µM): 0.749
relative viability ([8]; first compound 2.53 µM): 0.862
relative viability ([9]; first compound 0.08 µM): 0.893
relative viability ([9]; first compound 0.253 µM): 0.615
relative viability ([9]; first compound 0.8 µM): 0.596
relative viability ([9]; first compound 2.53 µM): 0.577
relative viability ([4]; first compound 0.253 µM): 0.565
relative viability ([4]; first compound 0.8 µM): 0.39
relative viability ([4]; first compound 2.53 µM): 0.464
relative viability ([10]; first compound 0.08 µM): 0.274
relative viability ([10]; first compound 0.253 µM): 0.226
relative viability ([10]; first compound 0.8 µM): 0.271
relative viability ([10]; first compound 2.53 µM): 0.364
relative viability ([11]; first compound 0.08 µM): 0.434
relative viability ([11]; first compound 0.253 µM): 0.51
relative viability ([11]; first compound 0.8 µM): 0.61
relative viability ([11]; first compound 2.53 µM): 0.671
relative viability ([12]; first compound 0.08 µM): 0.631
relative viability ([12]; first compound 0.253 µM): 0.53
relative viability ([12]; first compound 0.8 µM): 0.462
relative viability ([12]; first compound 2.53 µM): 0.438
relative viability ([6]; first compound 0.253 µM): 0.272
relative viability ([6]; first compound 0.8 µM): 0.227
relative viability ([6]; first compound 2.53 µM): 0.28
relative viability ([13]; first compound 0.08 µM): 0.681
relative viability ([13]; first compound 0.253 µM): 0.592
relative viability ([13]; first compound 0.8 µM): 0.562
relative viability ([13]; first compound 2.53 µM): 0.576
relative viability ([14]; first compound 0.08 µM): 0.453
relative viability ([14]; first compound 0.253 µM): 0.637
relative viability ([14]; first compound 0.8 µM): 0.421
relative viability ([14]; first compound 2.53 µM): 0.391
